Test results from patent US12491185B2, “Inhibitors of mPTP” (NRG Therapeutics Ltd, priority 2023, dated 2025).

Test system: mPTP
Assay: mPTP activity (Ca2+ retention) assay in isolated rat liver mitochondria
Type: biochemical
Details: examples tested by different contract research organisations, believed comparable
From the text: Pharmacological inhibition or modulation of the mPTP can be measured in well characterised ‘Ca^2+ retention’ assays performed in isolated mitochondria. In vitro, isolated mitochondria rapidly sequester exogenous Ca^2+ until the intramitochondrial Ca^2+ concentration reaches the threshold for mPTP activation. Once the pore is activated, mitochondrial integrity is compromised and the stored Ca^2+ is released. The distribution of Ca^2+ between extra- and intra-mitochondrial compartments can be measured in real time with the use of membrane-impermeant Ca^2+ sensitive fluorescent dyes. Depending on the configuration of the assay, inhibition or modulation of the mPTP either delays the opening of the pore or increases the concentration of Ca^2+ required to induce mPTP opening.
MPTP activity was measured in mitochondria freshly isolated from female Sprague Dawley (250 to 300 gram) rat livers using the following method. Cervical dislocation was performed on the rat. The liver was then perfused in-situ with −40 ml cold Dulbecco's Phosphate Buffered Saline (DPBS) prior to dissection and transferred into 30 ml Isolation Buffer (250 mM Sucrose, 10 mM KCl, 1 mM EGTA, 1 mM EDTA, 25 mM HEPES, adjusted to pH 7.5 with 1M NaOH). Each lobe of the liver was then removed from the buffer, minced using tweezers and a scalpel into −5 mm pieces then transferred into a 50 ml Potterton dounce homogenization tube on ice containing 30 ml ice-cold centrifugation buffer (300 mM Trehalose, 25 mM HEPES, 1 mM EGTA, 1 mM EDTA, 10 mM KCl, adjusted to pH 7.5 with 1M NaOH and supplemented with 0.1% bovine serum albumin (BSA) and complete protease inhibitor cocktail (one tablet of inhibitor per 50 mls of buffer). Homogenisation was carried out using a teflon pestle at 1800 rpm. The slurry was centrifuged at 800 g for 10 min at 4° C., then the supernatant centrifuged at 10,000 g for 10 min. The pellet was washed once with FLIPR assay buffer (75 mM Mannitol, 25 mM Sucrose, 5 mM Potassium Phosphate Monobasic, 20 mM Tris base, 100 mM KCl, 0.1% BSA adjusted to pH 7.4 with 5M HCl) centrifuged again, then resuspended in FLIPR assay buffer to a concentration of 8.8 mg/ml protein.
Tested compounds (10 mM stock in DMSO) were serially diluted in DMSO in half log steps to generate 10 test concentrations (final concentrations in assay 30 μM to 1 nM). An intermediate dilution of 5 μl DMSO samples into 247 μl FLIPR assay buffer was carried out prior to transfer of 5 μl into duplicate wells of a 384 well polypropylene assay plate. Control wells were 0.5% (v/v) DMSO and 5 μM cyclosporin A.
A stock mitochondria/Fluo5N assay solution was prepared in 5.6 ml FLIPR assay buffer (at RT) supplemented with succinate disodium salt (10 mM), rotenone (1 μM), Fluo5N pentapotassium salt (2 μM) and 1 ml mitochondria suspension, then transferred (15 μl) into the assay plate containing test compounds and incubated for 10 min at RT. Assay plates were processed for fluorescence detection on either a FLIPR Tetra (Molecular Devices) or CLARIOstar (BMG) plate reader. For kinetic fluorescence detection on the FLIPR, dye fluorescence was measured every 3 sec for a total of 10 min. After 12 sec, a 2.5 μl bolus of CaCl2 (75 μM) was added from a source plate containing 675 μM CaCl2 in FLIPR assay buffer. Alternatively, the 2.5 μl addition of CaCl2 was performed using a Viaflow 384, plates were incubated at RT for 10 min, and dye fluorescence measured after 10 min on the CLARIOstar plate reader. pIC50 values for tested compounds were calculated using the fluorescence value collected at the 10 min timepoint on either plate reader, with % inhibition calculated using the DMSO control and cyclosporin A values as 0 and 100% respectively.

For Cc1cc(=O)[nH]c(C(=O)NCC2(Cc3ccc(F)cc3F)CCC2)n1 [Example 200], the “mPTP Rat liver pIC50” value was <4.57.
With Cn1nc(C(=O)NC(CCc2ccccc2)CC(F)(F)F)[nH]c1=O (stereo not shown) [Example 71, 1-methyl-5-oxo-N-(1,1,1-trifluoro-5-phenylpentan-3-yl)-4,5-dihydro-1H-1,2,4-triazole-3-carboxamide] the “mPTP Rat liver pIC50” value was <4.52.
With O=C(NC[C@H](Cc1ccc(F)cc1F)C1CC1)c1cnc(=O)[nH]c1 [Example 147] the “mPTP Rat liver pIC50” value was <4.57.
In the case of O=C(NCC1(Cc2ccc(F)cc2F)CCC1)c1ccn[nH]c1=O [Example 134, N-((1-(2,4-difluorobenzyl)cyclobutyl)methyl)-3-oxo-2,3-dihydropyridazine-4-carboxamide], the “mPTP Rat liver pIC50” value is reported as <4.57.
With CCC(CNC(=O)c1nn(C)c(=O)[nH]1)Cc1cscn1 (stereo not shown) [Example 112, 1-methyl-5-oxo-N-(2-(thiazol-4-ylmethyl)butyl)-4,5-dihydro-1H-1,2,4-triazole-3-carboxamide] the “mPTP Rat liver pIC50” value was <4.57.

Going from Cn1nc(C(=O)NCC(Cc2ccc(F)cc2Cl)C2CC2)[nH]c1=O (stereo not shown) [Example 193, N-(3-(2-chloro-4-fluorophenyl)-2-cyclopropylpropyl)-1-methyl-5-oxo-4,5-dihydro-1H-1,2,4-triazole-3-carboxamide] to Cn1nc(C(=O)NCC(Cc2ccc(Cl)cc2F)C2CC2)[nH]c1=O (stereo not shown) [Example 222], the “mPTP Rat liver pIC50” value falls from 6.36 to 6.11.

First: Cn1nc(C(=O)NC[C@H](Cc2c(F)cccc2F)C2CC2)[nH]c1=O [Example 212]
Second: Cn1nc(C(=O)NCC(Cc2c(F)cc(F)cc2Cl)C2CC2)[nH]c1=O (stereo not shown) [Example 220]
The “mPTP Rat liver pIC50” value of the first is higher: 6.18 for the first, 5.56 for the second.

Compared with Cn1nc(C(=O)NCC2(Cc3ccc(F)cc3F)CCCO2)[nH]c1=O (stereo not shown) [Example 120], Cn1nc(C(=O)NCC(C)(Cc2ccc(F)cc2F)C2CC2)[nH]c1=O (stereo not shown) [Example 210, N-(2-cyclopropyl-3-(2,4-difluorophenyl)-2-methylpropyl)-1-methyl-5-oxo-4,5-dihydro-1H-1,2,4-triazole-3-carboxamide] is higher in “mPTP Rat liver pIC50” value: 6.51 for the first, 6.82 for the second.

Compared with O=C(NC[C@H](Cc1ccc(F)cc1F)C1CC1)c1noc(=O)[nH]1 [Example 204], CC[C@H](CNC(=O)c1noc(=O)[nH]1)Cc1ccc(F)cc1F [Example 209] is lower in “mPTP Rat liver pIC50” value: 6.53 for the first, 5.96 for the second.

CC[C@@H](Cc1ccc(F)cc1F)C(C)NC(=O)c1nn(C)c(=O)[nH]1 (stereo partly drawn) [Example 141, N-[(3S)-3-[(2,4-difluorophenyl)methyl]pentan-2-yl]-1-methyl-5-oxo-4H-1,2,4-triazole-3-carboxamide] and CC(NC(=O)c1nn(C)c(=O)[nH]1)[C@H](Cc1ccc(F)cc1F)C1CC1 (stereo partly shown) [Example 196] are within 0.2 log units of each other in “mPTP Rat liver pIC50” value: 6.44 for the first, 6.56 for the second.

First: CC(c1ccc(F)cc1F)[C@@H](CNC(=O)c1nccc(=O)[nH]1)C1CC1 (stereo partly drawn) [Example 188, N-[(2S)-2-Cyclopropyl-3-(2,4-difluorophenyl)butyl]-4-oxo-3H-pyrimidine-2-carboxamide]
Second: CCC(CNC(=O)c1nn(C)c(=O)[nH]1)Cc1ccc(F)c(F)c1 (stereo not shown) [Example 164]
The “mPTP Rat liver pIC50” value of the first is lower: 5.42 for the first, 6.56 for the second.

Compared with COCc1nnc(C(=O)NCC2(Cc3ccc(F)cc3F)CCC2)[nH]1 [Example 206], Cc1cc(F)ccc1CC1(CNC(=O)c2cncc(=O)[nH]2)CCC1 [Example 166] is higher in “mPTP Rat liver pIC50” value: 5.24 for the first, 5.7 for the second.

Compared with Cn1cc(C(=O)NCC2(Cc3ccccc3)CCC2)[nH]c1=O [Example 63, N-((1-benzylcyclobutyl)methyl)-1-methyl-2-oxo-2,3-dihydro-1H-imidazole-4-carboxamide], CC[C@@H](Cc1ccccc1)C(C)NC(=O)c1nn(C)c(=O)[nH]1 (stereo partly shown) [Example 135] is higher in “mPTP Rat liver pIC50” value: 4.65 for the first, 6.52 for the second.

In the case of Cn1nc(C(=O)NCCC(C)(C)c2ccccc2)[nH]c1=O [Example 59], the “mPTP Rat liver pIC50” value is reported as 5.06.
